From ChEMBL document CHEMBL3992500, “Design, facile synthesis and biological evaluations of novel pyrano[3,2-a]phenazine hybrid molecules as antitumor agents” (Eur J Med Chem, 2017)
Activity calls are given as the source filed them. The rule behind the calls is not given here.

Legend:
[1] = Antitumor activity against mouse H22-H8D8 cells implanted in ICR mouse assessed as tumor growth inhibition at 10 mg/kg, iv relative to control; format: functional; conditions: read-out: TGI
HepG2 [2] = assay: Induction of apoptosis in human HepG2 cells assessed as increase in cytochrome c release from mitochondria to cytosol up to 8 uM after 24 hrs by Western blot method; format: functional, cell-based
HepG2 [3] = assay: Induction of apoptosis in human HepG2 cells assessed as necrotic cells at 2 uM after 24 hrs by Annexin V-APC/7-AAD staining based flow cytometry (reference value: 5.35%); format: functional
[4] = target: DNA topoisomerase 2-alpha (Homo sapiens) (UniProt P11388); assay: Inhibition of DNA topoisomerase-2alpha (unknown origin) assessed as reduction in enzyme-catalyzed relaxation of pBR322 DNA substrate at 20 to 500 nM after 30 mins by ethidium bromide staining based electrophoresis
HepG2 [5] = assay: Induction of apoptosis in human HepG2 cells assessed as necrotic cells at 4 uM after 24 hrs by Annexin V-APC/7-AAD staining based flow cytometry (reference value: 5.35%); format: functional
HepG2 [6] = assay: Downregulation of CDK1 protein expression in human HepG2 cells after 24 hrs by Western blot method; format: functional, cell-based
HepG2 [7] = assay: Induction of apoptosis in human HepG2 cells after 24 hrs by Annexin V-APC/7-AAD staining based flow cytometry; format: functional, cell-based
HepG2 [8] = assay: Induction of apoptosis in human HepG2 cells assessed as early apoptotic cells at 8 uM after 24 hrs by Annexin V-APC/7-AAD staining based flow cytometry (reference value: 0.774%); format: functional
MCF7 = assay: Antiproliferative activity against human MCF7 cells after 48 hrs by MTT assay; format: functional, cell-based; conditions: MCF7, 48 h
HepG2 [9] = assay: Cell cycle arrest in human HepG2 cells assessed as accumulation at subG1 phase at 2 to 8 uM after 24 hrs by propidium iodide staining based flow cytometry; format: functional
HepG2 [10] = assay: Induction of apoptosis in human HepG2 cells assessed as live cells at 8 uM after 24 hrs by Annexin V-APC/7-AAD staining based flow cytometry (reference value: 87%); format: functional
[11] = Antitumor activity against mouse H22-H8D8 cells implanted in ICR mouse assessed as tumor growth inhibition at 20 mg/kg, iv relative to control; format: functional; conditions: read-out: TGI
HepG2 [12] = assay: Induction of apoptosis in human HepG2 cells assessed as live cells at 2 uM after 24 hrs by Annexin V-APC/7-AAD staining based flow cytometry (reference value: 87%); format: functional
HepG2 [13] = assay: Induction of apoptosis in human HepG2 cells assessed as late apoptotic cells at 2 uM after 24 hrs by Annexin V-APC/7-AAD staining based flow cytometry (reference value: 6.86%); format: functional
Mus musculus [14] = assay: Toxicity in ICR mouse implanted with mouse H22-H8D8 cells assessed as body weight at 5 mg/kg, iv (reference value: 29.89 to 33.78 g); format: organism-based; conditions: in vivo
HepG2 [15] = assay: Cell cycle arrest in human HepG2 cells assessed as accumulation at G2/M phase after 24 hrs by propidium iodide staining based flow cytometry; format: functional
HepG2 [16] = assay: Antiproliferative activity against human HepG2 cells after 48 hrs by MTT assay; format: functional, cell-based; conditions: HepG2, 48 h
[17] = target: T1, DNA topoisomerase 1 (Homo sapiens) (UniProt P11387); assay: Inhibition of DNA topoisomerase-1 (unknown origin) assessed as reduction in enzyme-catalyzed relaxation of pBR322 DNA substrate at 20 uM after 30 mins by ethidium bromide staining based electrophoresis
T1 sequence (whole entry): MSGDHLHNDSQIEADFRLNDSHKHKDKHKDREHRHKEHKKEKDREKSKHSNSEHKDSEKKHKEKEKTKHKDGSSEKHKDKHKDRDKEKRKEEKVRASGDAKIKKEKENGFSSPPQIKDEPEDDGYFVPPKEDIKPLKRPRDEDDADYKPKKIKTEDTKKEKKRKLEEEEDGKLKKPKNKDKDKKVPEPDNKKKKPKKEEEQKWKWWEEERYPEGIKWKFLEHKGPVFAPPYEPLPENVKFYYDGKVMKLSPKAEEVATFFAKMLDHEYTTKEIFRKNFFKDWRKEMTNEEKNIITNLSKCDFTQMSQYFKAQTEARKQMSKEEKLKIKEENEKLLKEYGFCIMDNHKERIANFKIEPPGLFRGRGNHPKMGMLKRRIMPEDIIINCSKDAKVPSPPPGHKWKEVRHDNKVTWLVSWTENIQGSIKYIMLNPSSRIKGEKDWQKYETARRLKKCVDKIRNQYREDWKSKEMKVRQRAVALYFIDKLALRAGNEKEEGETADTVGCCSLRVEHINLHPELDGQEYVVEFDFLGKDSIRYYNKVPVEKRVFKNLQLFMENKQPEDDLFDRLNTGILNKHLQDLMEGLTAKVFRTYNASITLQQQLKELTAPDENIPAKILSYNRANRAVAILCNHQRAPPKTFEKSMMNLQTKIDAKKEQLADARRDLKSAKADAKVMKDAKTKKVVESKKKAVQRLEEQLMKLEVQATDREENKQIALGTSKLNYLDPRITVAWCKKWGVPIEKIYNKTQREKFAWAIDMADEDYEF

[18] = target: DNA topoisomerase 2-alpha (Homo sapiens) (UniProt P11388); assay: Inhibition of DNA topoisomerase-2alpha (unknown origin) assessed as reduction in enzyme-catalyzed relaxation of pBR322 DNA substrate at 20 uM after 30 mins by ethidium bromide staining based electrophoresis
HepG2 [19] = assay: Induction of apoptosis in human HepG2 cells assessed as live cells at 4 uM after 24 hrs by Annexin V-APC/7-AAD staining based flow cytometry (reference value: 87%); format: functional
HepG2 [20] = assay: Induction of apoptosis in human HepG2 cells assessed as early apoptotic cells at 4 uM after 24 hrs by Annexin V-APC/7-AAD staining based flow cytometry (reference value: 0.774%); format: functional
HepG2 [21] = assay: Upregulation of p53 protein expression in human HepG2 cells after 24 hrs by Western blot method; format: functional, cell-based
HepG2 [22] = assay: Induction of apoptosis in human HepG2 cells assessed as necrotic cells at 8 uM after 24 hrs by Annexin V-APC/7-AAD staining based flow cytometry (reference value: 5.35%); format: functional
HepG2 [23] = assay: Induction of apoptosis in human HepG2 cells assessed as late apoptotic cells at 4 uM after 24 hrs by Annexin V-APC/7-AAD staining based flow cytometry (reference value: 6.86%); format: functional
HepG2 [24] = assay: Induction of apoptosis in human HepG2 cells assessed as late apoptotic cells at 8 uM after 24 hrs by Annexin V-APC/7-AAD staining based flow cytometry (reference value: 6.86%); format: functional
HepG2 [25] = assay: Downregulation of cyclin B protein expression in human HepG2 cells after 24 hrs by Western blot method; format: functional, cell-based
HepG2 [26] = assay: Induction of apoptosis in human HepG2 cells assessed as increase in cleaved caspase-3 expression after 24 hrs by Western blot method; format: functional, cell-based
A549 = assay: Antiproliferative activity against human A549 cells after 48 hrs by MTT assay; format: functional, cell-based; conditions: A549, 48 h
HepG2 [27] = assay: Induction of apoptosis in human HepG2 cells assessed as early apoptotic cells at 2 uM after 24 hrs by Annexin V-APC/7-AAD staining based flow cytometry (reference value: 0.774%); format: functional
HCT-116 = assay: Antiproliferative activity against human HCT116 cells after 48 hrs by MTT assay; format: functional, cell-based; conditions: HCT-116, 48 h
HepG2 [28] = assay: Induction of apoptosis in human HepG2 cells assessed as increase in cleaved caspase-9 expression after 24 hrs by Western blot method; format: functional, cell-based
HepG2 [29] = assay: Upregulation of p21 protein expression in human HepG2 cells after 24 hrs by Western blot method; format: functional, cell-based
Mus musculus [30] = assay: Toxicity in ICR mouse implanted with mouse H22-H8D8 cells assessed as body weight at 20 mg/kg, iv (reference value: 29.89 to 33.78 g); format: organism-based; conditions: in vivo
[31] = Antitumor activity against mouse H22-H8D8 cells implanted in ICR mouse assessed as tumor growth inhibition at 5 mg/kg, iv relative to control; format: functional; conditions: read-out: TGI
HepG2 [32] = assay: Induction of apoptosis in human HepG2 cells assessed as increase in Bax/Bcl2 ratio up to 8 uM after 24 hrs by Western blot method; format: functional, cell-based
[33] = target: T1, DNA topoisomerase 1 (Homo sapiens); assay: Inhibition of DNA topoisomerase-1 (unknown origin) assessed as reduction in enzyme-catalyzed relaxation of pBR322 DNA substrate at 2.5 to 5 uM after 30 mins by ethidium bromide staining based electrophoresis
Mus musculus [34] = assay: Toxicity in ICR mouse implanted with mouse H22-H8D8 cells assessed as body weight at 10 mg/kg, iv (reference value: 29.89 to 33.78 g); format: organism-based; conditions: in vivo

Sequence of DNA topoisomerase 2-alpha (Homo sapiens) (P11388 whole entry): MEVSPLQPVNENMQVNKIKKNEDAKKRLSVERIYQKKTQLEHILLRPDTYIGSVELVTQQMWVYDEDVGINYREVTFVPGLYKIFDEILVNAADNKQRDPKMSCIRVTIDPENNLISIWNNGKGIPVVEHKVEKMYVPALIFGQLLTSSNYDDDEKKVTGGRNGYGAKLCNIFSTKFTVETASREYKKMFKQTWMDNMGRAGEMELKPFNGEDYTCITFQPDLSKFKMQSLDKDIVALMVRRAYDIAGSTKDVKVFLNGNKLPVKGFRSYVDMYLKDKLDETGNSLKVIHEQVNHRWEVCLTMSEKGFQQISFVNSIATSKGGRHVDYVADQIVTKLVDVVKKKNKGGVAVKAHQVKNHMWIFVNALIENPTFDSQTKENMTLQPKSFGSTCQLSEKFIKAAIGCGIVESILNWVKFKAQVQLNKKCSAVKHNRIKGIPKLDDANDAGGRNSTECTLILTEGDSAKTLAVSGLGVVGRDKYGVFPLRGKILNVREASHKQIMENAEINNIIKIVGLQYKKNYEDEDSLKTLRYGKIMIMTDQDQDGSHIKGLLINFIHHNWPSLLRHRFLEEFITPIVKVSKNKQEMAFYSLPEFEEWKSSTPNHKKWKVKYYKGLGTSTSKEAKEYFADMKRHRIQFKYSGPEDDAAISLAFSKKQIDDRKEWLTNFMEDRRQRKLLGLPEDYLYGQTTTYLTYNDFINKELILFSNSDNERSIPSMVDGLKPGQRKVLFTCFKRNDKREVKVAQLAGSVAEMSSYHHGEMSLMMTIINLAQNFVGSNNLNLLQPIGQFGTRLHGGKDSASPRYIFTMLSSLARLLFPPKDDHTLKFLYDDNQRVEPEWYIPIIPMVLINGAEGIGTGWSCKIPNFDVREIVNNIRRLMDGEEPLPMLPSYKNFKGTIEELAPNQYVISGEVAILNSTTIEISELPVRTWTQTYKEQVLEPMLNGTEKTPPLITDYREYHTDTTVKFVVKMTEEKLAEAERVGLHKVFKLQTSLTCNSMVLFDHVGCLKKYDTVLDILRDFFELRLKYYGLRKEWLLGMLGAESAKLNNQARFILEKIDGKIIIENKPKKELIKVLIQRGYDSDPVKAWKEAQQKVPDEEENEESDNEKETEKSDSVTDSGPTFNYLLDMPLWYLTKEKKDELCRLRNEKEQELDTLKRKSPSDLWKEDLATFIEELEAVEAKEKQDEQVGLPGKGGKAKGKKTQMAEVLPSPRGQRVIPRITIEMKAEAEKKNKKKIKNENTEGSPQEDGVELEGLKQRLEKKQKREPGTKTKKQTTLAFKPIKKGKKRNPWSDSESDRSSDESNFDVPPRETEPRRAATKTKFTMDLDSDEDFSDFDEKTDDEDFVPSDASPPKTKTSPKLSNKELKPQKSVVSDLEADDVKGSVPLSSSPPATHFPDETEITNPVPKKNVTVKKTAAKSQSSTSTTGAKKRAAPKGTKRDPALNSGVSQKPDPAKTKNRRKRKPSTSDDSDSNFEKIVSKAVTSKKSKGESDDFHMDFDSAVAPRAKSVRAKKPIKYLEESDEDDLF

inhibition [4]: Active
IC50 (MCF7): 7.3 µM
IC50 (HepG2 [16]): 2.1 µM
inhibition [17]: Active
inhibition [18]: Active
IC50 (A549): 6.8 µM
IC50 (HCT-116): 8 µM
inhibition [33]: Active
SMILES: N#CC1=C(N)Oc2c(N)cc3nc4ccccc4nc3c2C1c1ccc(Cl)c(Cl)c1 (configuration not stated)
inhibition in vivo at 10 mg/kg [1]: 68.9%
Activity (HepG2 [2]): Active
Activity (HepG2 [3]): 5.65%
Activity (HepG2 [5]): 14.9%
Activity (HepG2 [6]): Dose-dependent effect
Activity (HepG2 [7]): Dose-dependent effect
Activity (HepG2 [8]): 3.31%
Activity (HepG2 [9]): Active
Activity (HepG2 [10]): 22.5%
inhibition in vivo at 20 mg/kg [11]: 77.8%
Activity (HepG2 [12]): 80%
Activity (HepG2 [13]): 11.2%
Activity (Mus musculus [14]): 38 g
Activity (HepG2 [15]): Dose-dependent effect
Activity (HepG2 [19]): 44.7%
Activity (HepG2 [20]): 8.97%
Activity (HepG2 [21]): Dose-dependent effect
Activity (HepG2 [22]): 20.7%
Activity (HepG2 [23]): 31.5%
Activity (HepG2 [24]): 53.5%
Activity (HepG2 [25]): Dose-dependent effect
Activity (HepG2 [26]): Dose-dependent effect
Activity (HepG2 [27]): 3.1%
Activity (HepG2 [28]): Dose-dependent effect
Activity (HepG2 [29]): Dose-dependent effect
Activity (Mus musculus [30]): 35.22 g
inhibition in vivo at 5 mg/kg [31]: 7.78%
Activity (HepG2 [32]): Active
Activity (Mus musculus [34]): 35.33 g
